Reference: paper PMC8709206, “Study on Purification and Characterization of Polyphenol Oxidase from Acetes chinensis” (Molecules, 2021)

Test system: T1, Acetes chinensis PPO (polyphenol oxidase)
T1 construct: native enzyme purified from fresh shrimp (ammonium sulphate, DEAE, Phenyl-Sepharose HP); single SDS-PAGE band about 75 kDa
Test: absorbance at […] nm, Lineweaver-Burk
Assay type: biochemical
Settings: 0.05 mol/L phosphate buffer pH 7.2, 40 °C, 40 min; Figure 2 caption names pyrocatechol, text names L-Dopa

Km: 846 µM
SMILES: N[C@@H](Cc1ccc(O)c(O)c1)C(=O)O [L-dopa]
